Reference: ChEMBL document CHEMBL4373636, “Synthesis of endolides A and B: naturally occurring N-methylated cyclic tetrapeptides” (Medchemcomm, 2019)

Tests used:
[1] = target: 5-hydroxytryptamine receptor 2B (Homo sapiens, UniProt P41595); experiment: Binding affinity to 5HT2b (unknown origin)
Vasopressin V1a receptor = Vasopressin V1a receptor (Homo sapiens, UniProt P37288); experiment: Binding affinity to vasopressin 1A receptor (unknown origin)
Chain of Vasopressin V1a receptor (P37288 whole entry): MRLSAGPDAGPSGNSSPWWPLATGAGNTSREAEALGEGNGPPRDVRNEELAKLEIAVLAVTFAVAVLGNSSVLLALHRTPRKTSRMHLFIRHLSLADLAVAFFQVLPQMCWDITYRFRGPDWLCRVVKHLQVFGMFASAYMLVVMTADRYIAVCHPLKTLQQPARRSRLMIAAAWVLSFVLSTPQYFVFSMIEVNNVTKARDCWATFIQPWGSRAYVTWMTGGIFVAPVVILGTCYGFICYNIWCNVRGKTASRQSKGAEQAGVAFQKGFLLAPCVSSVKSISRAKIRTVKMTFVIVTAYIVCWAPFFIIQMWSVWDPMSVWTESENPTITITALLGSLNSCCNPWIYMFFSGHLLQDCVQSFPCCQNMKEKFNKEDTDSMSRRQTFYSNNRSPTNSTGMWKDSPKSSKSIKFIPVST

Chain of 5-hydroxytryptamine receptor 2B (P41595 whole entry): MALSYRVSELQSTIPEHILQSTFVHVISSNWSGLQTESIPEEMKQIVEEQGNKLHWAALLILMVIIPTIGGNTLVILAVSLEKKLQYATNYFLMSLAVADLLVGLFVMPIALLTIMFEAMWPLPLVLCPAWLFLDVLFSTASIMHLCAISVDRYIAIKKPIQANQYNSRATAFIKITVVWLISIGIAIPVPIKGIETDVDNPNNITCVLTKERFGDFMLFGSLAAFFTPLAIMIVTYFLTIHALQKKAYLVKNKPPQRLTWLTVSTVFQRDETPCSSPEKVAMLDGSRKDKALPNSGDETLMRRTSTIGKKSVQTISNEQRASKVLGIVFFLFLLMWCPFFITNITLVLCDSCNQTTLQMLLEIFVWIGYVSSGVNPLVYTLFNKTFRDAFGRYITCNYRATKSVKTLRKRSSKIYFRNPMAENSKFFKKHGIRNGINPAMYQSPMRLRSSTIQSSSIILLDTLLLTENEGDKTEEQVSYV

Ki [1] | Ki (Vasopressin V1a receptor) | Compound
770 nM | – | CC(C)[C@@H]1NC(=O)[C@H](Cc2ccoc2)N(C)C(=O)[C@H](Cc2ccoc2)NC(=O)[C@H](Cc2ccoc2)N(C)C1=O
– | 7.04 µM | CC(C)C[C@@H]1NC(=O)[C@H](Cc2ccoc2)N(C)C(=O)[C@H](C(C)C)NC(=O)[C@H](Cc2ccoc2)N(C)C1=O
